Assay results published in paper PMC10816276 (International Journal of Molecular Sciences, 2024).

Columns and labels:
[1] = biological target: T1, Mushroom tyrosinase (mTyr) (Agaricus bisporus, UniProt C7FF04); test: HPLC analysis of oxidation of L-DOPA catalyzed by mTyr; assay type: biochemical; settings: 2 μg·mL^−1 inhibitor, 0.5 mM L-DOPA, 31.25 U·mL^−1 mTyr, 30 °C, 0-30 min
T1 construct: purchased Sigma-Aldrich
Method: The inhibitory effect of 6′-O-caffeoylarbutin on the oxidation of L-DOPA catalyzed by mTyr was studied using Agilent 1200 series HPLC analysis (Palo Alto, CA, USA), with minor modifications to the previous procedure. The experiment was conducted with 0.5 mM L-DOPA as a diphenolase substrate for 31.25 U·mL^−1 mTyr in the absence of an inhibitor. Subsequently, 2 μg·mL^−1 of 6′-O-caffeoylarbutin was added, and the reaction mixture was incubated for 0, 15, and 30 min at 30 °C. Samples (10 μL) were injected after filtration onto the HPLC system equipped with a Capcell pak C18 column (250 × 4.6 mm, 5 μm, Shiseido, Tokyo, Japan) operating at a flow rate of 1.0 mL·min^−1. The column temperature maintained at 30 °C and the detection wavelength was set at 280 nm. The mobile phase was consisted of water (A) and methanol (B), and a gradient elution employed with the following linear gradient for solvent B: 5% (0 min), 20% (10 min), 50% (20 min), 80% (25 min), and 100% (35 min).

ICR mice = test: Acute oral toxicity, 14 days; assay type: in vivo; settings: for Death rate / Death toll (♀/♂): 20 mice; for Toxic Symptoms (♀/♂) Perianal Uncleanliness / Toxic Symptoms (♀/♂) Prone State / Toxic Symptoms (♀/♂) Reduced Activities / Toxic Symptoms (♀/♂) Shortness of Breath: n = 20 mice
Method: I. Animals. […] Male and female mice were raised separately in sterile PC transparent cages in the room with a 12 h light-dark cycle. The animal procedures followed the guidelines of the National Institute of Health Guide for the Care and Use of Laboratory Animals and were approved by the Institutional Animal Care and Use Committee (IACUC) of Yunnan Institute of Materia Medica.
II. Acute oral_toxicity. […] In this experiment, a 5% sodium carboxymethyl cellulose solution (5% CMC-Na) was chosen as the Vehicle and the solvent for 6′-O-caffeoylarbutin. […] Each mouse in the Vehicle group received an administration of 40 mL∙kg-1 of 5% CMC-Na. The treatment groups were orally administrated 6′-O-caffeoylarbutin twice within a 24_h period, with an interval of approximately 3.5–4.0 h, by dissolving in 5% CMC-Na at three different concentrations. Following administration, all animals in each group were closely monitored for about 2–5 h to observe any physical changes, monitor body weight, and record the death rate. The surviving mice were observed and monitored for an additional 14 days, with their body weight recorded on the 1st, 3rd, 7th, and 14th days. Animals that died during the experimental period or those that survived until the conclusion of the toxicity test were subjected to necropsy, and their organs were histopathologically observed and analyzed. All studies were conducted in accordance with the requirements of Good Laboratory Practice.

T1 sequence (C7FF04 1-392): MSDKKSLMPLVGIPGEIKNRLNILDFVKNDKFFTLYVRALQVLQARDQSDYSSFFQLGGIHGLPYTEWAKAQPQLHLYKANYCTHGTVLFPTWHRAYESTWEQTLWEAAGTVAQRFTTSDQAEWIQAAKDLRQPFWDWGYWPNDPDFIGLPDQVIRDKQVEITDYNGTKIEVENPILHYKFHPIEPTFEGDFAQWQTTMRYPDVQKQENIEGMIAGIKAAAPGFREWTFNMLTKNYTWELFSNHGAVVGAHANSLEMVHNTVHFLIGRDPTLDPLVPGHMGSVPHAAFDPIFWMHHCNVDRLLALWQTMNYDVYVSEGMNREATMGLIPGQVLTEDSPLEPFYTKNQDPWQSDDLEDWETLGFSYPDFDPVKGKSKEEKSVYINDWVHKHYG

SMILES: O=C(C=Cc1ccc(O)c(O)c1)OCC1OC(Oc2ccc(O)cc2)C(O)C(O)C1O (centres unmarked) [6′-O-caffeoylarbutin]
- oxidation products of L-DOPA (HPLC) [1]: significantly decrease
- Death rate (ICR mice; CA-1, 28056 mg·kg-1 oral): 25%
- Death toll (♀/♂) (ICR mice; CA-1, 28056 mg·kg-1 oral): 3/2
- Toxic Symptoms (♀/♂) Perianal Uncleanliness (ICR mice; CA-1, 28,056 mg·kg^−1 oral): 0
- Toxic Symptoms (♀/♂) Prone State (ICR mice; CA-1, 28,056 mg·kg^−1 oral): 2 (0/2)
- Toxic Symptoms (♀/♂) Reduced Activities (ICR mice; CA-1, 28,056 mg·kg^−1 oral): 8 (2/6)
- Toxic Symptoms (♀/♂) Shortness of Breath (ICR mice; CA-1, 28,056 mg·kg^−1 oral): 4 (2/2)
- Body weight gain (ICR mice; CA-1, Female mice): 2.22 ± 0.62 g
- body weight, 1st day after the delivery (ICR mice; CA-1, Female mice): 22.26±0.97
- body weight, 3rd day after the delivery (ICR mice; CA-1, Female mice): 24.28±1.18
- body weight, 7th day after the delivery (ICR mice; CA-1, Female mice): 24.88±1.09
- body weight, 14th day after the delivery (ICR mice; CA-1, Female mice): 27.10±1.39
- Body weight gain (ICR mice; CA-1, Male mice): 2.65 ± 1.01 g
- body weight, 1st day after the delivery (ICR mice; CA-1, Male mice): 30.75±2.11
- body weight, 3rd day after the delivery (ICR mice; CA-1, Male mice): 33.62±2.35
- body weight, 7th day after the delivery (ICR mice; CA-1, Male mice): 35.25±2.53
- body weight, 14th day after the delivery (ICR mice; CA-1, Male mice): 37.90±3.13
- Death rate (ICR mice; CA-2, 23848 mg·kg-1 oral): 5%
- Death toll (♀/♂) (ICR mice; CA-2, 23848 mg·kg-1 oral): 0/1
- Toxic Symptoms (♀/♂) Perianal Uncleanliness (ICR mice; CA-2, 23,848 mg·kg^−1 oral): 0
- Toxic Symptoms (♀/♂) Prone State (ICR mice; CA-2, 23,848 mg·kg^−1 oral): 0
- Toxic Symptoms (♀/♂) Reduced Activities (ICR mice; CA-2, 23,848 mg·kg^−1 oral): 1 (0/1)
- Toxic Symptoms (♀/♂) Shortness of Breath (ICR mice; CA-2, 23,848 mg·kg^−1 oral): 0
- Body weight gain (ICR mice; CA-2, Female mice): 1.88 ± 1.17 g
- body weight, 1st day after the delivery (ICR mice; CA-2, Female mice): 21.58±1.21
- body weight, 7th day after the delivery (ICR mice; CA-2, Female mice): 23.59±0.50
- body weight, 14th day after the delivery (ICR mice; CA-2, Female mice): 25.47±1.36
- Body weight gain (ICR mice; CA-2, Male mice): 3.38 ± 1.23 g
- body weight, 1st day after the delivery (ICR mice; CA-2, Male mice): 30.91±0.87
- body weight, 3rd day after the delivery (ICR mice; CA-2, Male mice): 33.07±1.24
- body weight, 7th day after the delivery (ICR mice; CA-2, Male mice): 33.88±1.71
- body weight, 14th day after the delivery (ICR mice; CA-2, Male mice): 37.26±2.19
- Death toll (♀/♂) (ICR mice; CA-3, 20272 mg·kg-1 oral): 0/0
- Toxic Symptoms (♀/♂) Perianal Uncleanliness (ICR mice; CA-3, 20,272 mg·kg^−1 oral): 0
- Toxic Symptoms (♀/♂) Prone State (ICR mice; CA-3, 20,272 mg·kg^−1 oral): 0
- Toxic Symptoms (♀/♂) Reduced Activities (ICR mice; CA-3, 20,272 mg·kg^−1 oral): 0
- Toxic Symptoms (♀/♂) Shortness of Breath (ICR mice; CA-3, 20,272 mg·kg^−1 oral): 0
- Body weight gain (ICR mice; CA-3, Female mice): 2.41 ± 1.51 g
- body weight, 1st day after the delivery (ICR mice; CA-3, Female mice): 22.21±0.87
- body weight, 3rd day after the delivery (ICR mice; CA-3, Female mice): 23.36±0.66
- body weight, 14th day after the delivery (ICR mice; CA-3, Female mice): 26.62±1.54
- Body weight gain (ICR mice; CA-3, Male mice): 1.45 ± 3.11 g
- body weight, 1st day after the delivery (ICR mice; CA-3, Male mice): 30.89±1.57
- body weight, 3rd day after the delivery (ICR mice; CA-3, Male mice): 33.88±1.41
- body weight, 7th day after the delivery (ICR mice; CA-3, Male mice): 35.33±1.44
- body weight, 14th day after the delivery (ICR mice; CA-3, Male mice): 36.78±3.53
- deaths (ICR mice; mouse, in vivo): no deaths
